Measured values from US6376511B2, “8-aminoquinolines” (The University of Mississippi, priority 1999, dated 2002).
Where two headings read alike, the source gives them in different places.

Experiments:
[1] = test system: Plasmodium berghei KBG-173; format: in vivo; settings: for Parasitemia Day 6: percentage of red blood cells with parasites, control 31.8
Experimental: Blood Schizontocidal Test (Trophozoite-Induced Plasmodium berghei Infection in mice University of Miami, Test System: Thompson Test
Drugs were mixed in 0.5% hydroxycellulose 0.1% Tween 80 and administered orally b.i.d. on days 3, 4 and 5 postinfection. CD-1 male or female mice, 5 weeks of age, were infected with 5×10^4 parasitized erythrocytes of Plasmodium berghei KBG-173 mm strain. Blood films were taken on day +6 and weekly thereafter until day +60. Parasitemias were calculated and SD90 value (dose suppressing 90% of the parasites in treated groups compared with the infected non-treated controls) on day +6 postinfection. Mortality data was tabulated for 60 days at which time all mice surviving that were blood film negative were considered cured.
[…] The activity of these compounds were compared with the untreated control and “racemate” which is a mixture of equal amount of each enantiomer X and Y. In untreated controls, death occurs within 8-9 days. Compounds which are effective against Plasmodium berghei infection increase the mean survival time of the infected animals when compared with the untreated controls. Mice that survive after thirty days and are free of parasites in blood are considered cured.
Efficacy of the drug is determined by the number of cures at the end of a 30 day period and the increase in mean survival time over the control (ΔMST). The effect of the test drugs also could be determined by the reduction of the parasitemia (percentage of the red blood cells detected with the parasites) over the untreated control on day 6, one day after the treatment is completed. Both these methods yield virtually identical results. If the dose of test compounds are inadequate, after initial clearance, residual parasites will multiply and relapses will occur within thirty days. The blood schizontocidal activities (suppressive antimalarial) of X, Y, and racemate against P. berghei in mice are shown in Table 11.

[2] = test system: Plasmodium berghei KBG-173; test: Prophylactic test, Plasmodium berghei infection in mice, oral; format: in vivo; settings: for Mice surviving day 60/Mice infected and treated: single dose of 2 mg/kg
Excerpt: CD-I male or female mice, 5 weeks of age, were infected with 5×10^4 parasitized erythrocytes ot Plasmodium berghei KBG-173 mm strain. Blood films were taken on day +6 and weekly thereafter until day+30. […]

P. carinii = test: In vitro antipneumocystis activity; format: cell-based; settings: Pneumocystis carinii, 168 h, read-out: % of control on day 7
Pneumocystis carinii = test: Anti-Pneumocystis carinii test (induced Pneumocystis carinii infection in immunosuppressed mice), oral; format: in vivo; settings: mice
L. mexicana amazonensis = test: In vitro anti-Leishmania activity, Giemsa counts; format: cell-based; settings: 10 μg/mL; control 15.10 ± 2.18
L. donovani Chagasi PP75 = test: In vitro anti-Leishmania activity, Giemsa counts; format: cell-based; settings: control 6.35
Toxoplasma gondii = test: In vitro evaluation against Toxoplasma gondii; format: cell-based; settings: preliminary evaluation
[3] = test system: trypanosome isolate EATRO Lab 110; test: Antitrypanosomal activity, trypanosome isolates grown as blood forms in HMI-18; format: cell-based, Trypanosoma; settings: Trypanosoma, 48 h
Experimental: (§1) Compounds were tested vs. trypanosome isolates grown as blood forms in HMI-18 (Hirumi H., Hirumi, K. 1989. Continuous Cuitivation of Trypanosoma brucei bloodstream forms in a medium containing a low concentration of serum portein without feeder cell layers. J. Parasitol. 75:985-989) containing 20% horse serum.

[4] = test system: trypanosome isolate KETRI 243As103; test: as above; format: cell-based, Trypanosoma; settings: Trypanosoma, 48 h
Experimental: as §1

[5] = test system: trypanosome isolate KETRI 243; test: as above; format: cell-based, Trypanosoma; settings: Trypanosoma, 48 h
Experimental: as §1

[6] = test system: trypanosome isolate KETRI 269; test: as above; format: cell-based, Trypanosoma; settings: Trypanosoma, 48 h
Experimental: as §1

Leishmania = test: In vitro activity against a variety of strains of Leishmania; format: cell-based
P. berghei = settings: single dose 72 h after infection, cited from earlier work
P. cynomolgi = settings: rhesus monkey, cited from earlier work
[7] = 0.25 mg/kg/day, 0.75 mg/kg total
[8] = oral 1.3 mg/kg/day (x21), mean score on 0 to 5+ scale

COc1cc(NC(C)CCCN)c2nccc(C)c2c1Oc1ccc(Cl)c(Cl)c1 (racemic) [DN3-27-1, 8-[(4-amino-1-methylbutyl)amino]-5-(3,4-dichlorophenoxy)-6-methoxy-4-methylquinoline]
Mice Alive Day 26 [1, 7]: 0/5
ΔMST (increase in mean survival time over the control) [1, 7]: 11.6 days
Parasitemia Day 6 [1, 7]: 4.8
Mice Alive Day 26 ([1]; 1 mg/kg/day, 3 mg/kg total): 0/5
ΔMST (increase in mean survival time over the control) ([1]; 1 mg/kg/day, 3 mg/kg total): 10.2 days
Parasitemia Day 6 ([1]; 1 mg/kg/day, 3 mg/kg total): 0.1
toxicity in mice ([1]; highest dose tested (Table I)): no mice showed toxicity at the highest dose tested
Mice surviving 60 days/Mice infected and treated ([1]; oral dose 1 mg/kg/day (total dose 3 mg/kg), P. berghei in mice): 7/7
Mice surviving 60 days/Mice infected and treated ([1]; oral dose 4 mg/kg/day (total dose 12 mg/kg), P. berghei in mice): 7/7
Mice surviving 60 days/Mice infected and treated ([1]; oral dose 16 mg/kg/day (total dose 48 mg/kg), P. berghei in mice): 7/7
Mice surviving 60 days/Mice infected and treated ([1]; oral dose 64 mg/kg/day (total dose 192 mg/kg), P. berghei in mice): 7/7
blood schizonticidal activity, comparison among compounds of Table I ([1]; oral, P. berghei in mice): the most active
Mice infected and Mice/treated surviving day 60 ([2]; day of treatment 1, dose 2 mg/kg): 5/5
Mice infected and Mice/treated surviving day 60 ([2]; day of treatment 1, dose 8 mg/kg): 5/5
Mice infected and Mice/treated surviving day 60 ([2]; day of treatment 1, dose 32 mg/kg): 5/5
Mice infected and Mice/treated surviving day 60 ([2]; day of treatment 1, dose 128 mg/kg): 5/5
Mice infected and Mice/treated surviving day 60 ([2]; day of treatment 2, dose 2 mg/kg): 5/5
Mice infected and Mice/treated surviving day 60 ([2]; day of treatment 2, dose 8 mg/kg): 5/5
Mice infected and Mice/treated surviving day 60 ([2]; day of treatment 2, dose 32 mg/kg): 5/5
Mice infected and Mice/treated surviving day 60 ([2]; day of treatment 2, dose 128 mg/kg): 5/5
Mice infected and Mice/treated surviving day 60 ([2]; day of treatment -1, dose 2 mg/kg): 5/5
Mice infected and Mice/treated surviving day 60 ([2]; day of treatment -1, dose 8 mg/kg): 5/5
Mice infected and Mice/treated surviving day 60 ([2]; day of treatment -1, dose 32 mg/kg): 5/5
Mice infected and Mice/treated surviving day 60 ([2]; day of treatment -1, dose 128 mg/kg): 5/5
Mice infected and Mice/treated surviving day 60 ([2]; day of treatment -2, dose 2 mg/kg): 5/5
Mice infected and Mice/treated surviving day 60 ([2]; day of treatment -2, dose 8 mg/kg): 5/5
Mice infected and Mice/treated surviving day 60 ([2]; day of treatment -2, dose 32 mg/kg): 5/5
Mice infected and Mice/treated surviving day 60 ([2]; day of treatment -2, dose 128 mg/kg): 5/5
Mice infected and Mice/treated surviving day 60 ([2]; day of treatment -3, dose 2 mg/kg): 0/5
Mice infected and Mice/treated surviving day 60 ([2]; day of treatment -3, dose 8 mg/kg): 5/5
Mice infected and Mice/treated surviving day 60 ([2]; day of treatment -3, dose 32 mg/kg): 5/5
Mice infected and Mice/treated surviving day 60 ([2]; day of treatment -3, dose 128 mg/kg): 5/5
protection from malaria ([2]; single dose of 2 mg/kg within 2 days preinfection through 2 days post infection, mice): completely protected from malaria
Mice surviving day 60/Mice infected and treated ([2]; day of treatment 2 (Table 5)): 2/5
Mice surviving day 60/Mice infected and treated ([2]; day of treatment -2 (Table 5)): 0/5
Mice surviving day 60/Mice infected and treated ([2]; day of treatment -3 (Table 5)): 0/5
Mice surviving day 60/Mice infected and treated ([2]; day of treatment -4 (Table 5)): 0/5
Mice surviving day 60/Mice infected and treated ([2]; day of treatment -5 (Table 5)): 0/5
activity at 0.1 µg/mL (P. carinii; concentration 0.1 μg/ml): 76.7%
activity at 1 µg/mL (P. carinii; concentration 1.0 μg/ml): 40.5%
activity at 10 µg/mL (P. carinii; concentration 10 μg/ml): 3.2%
Giemsa Stain I/T (animals with organism after treatment/animals treated) (Pneumocystis carinii; oral 0.25 mg/kg/day (x21)): 2/10
Giemsa Stain I/T (animals with organism after treatment/animals treated) (Pneumocystis carinii; oral 1.3 mg/kg/day (x21)): 0/10
Silver stain I/T (animals with organism after treatment/animals treated) (Pneumocystis carinii; oral 1.3 mg/kg/day (x21)): 0/10
Giemsa Stain Score (Pneumocystis carinii; [8]): 0.0
Silver stain Score (Pneumocystis carinii; [8]): 0.0
Giemsa Counts (L. mexicana amazonensis): 1.30 ± 0.38
Giemsa Counts (L. donovani Chagasi PP75; 50 ng/mL): 0.95 ± 0.27
Giemsa Counts (L. donovani Chagasi PP75; 150 ng/mL): 0.10 ± 0.03
Giemsa Counts (L. donovani Chagasi PP75; 450 ng/mL): 0.00 ± 0.00
activity in vitro against Toxoplasma gondii (concentration) (Toxoplasma gondii): around 50 μM
IC50 [3]: 9.4 µM
IC50 [4]: 10.9 µM
IC50 [5]: 29 µM
IC50 [6]: 5 µM
in vitro activity against a variety of strains of Leishmania (Leishmania): in vitro activity at very low concentrations
Mice infected and treated/Mice surviving 60 days (P. berghei; 5 mg/kg subcutaneously): 5/4
Mice infected and treated/Mice surviving 60 days (P. berghei; 10 mg/kg subcutaneously): 5/5
Mice infected and treated/Mice surviving 60 days (P. berghei; 20 mg/kg subcutaneously): 5/5
Mice infected and treated/Mice surviving 60 days (P. berghei; 40 mg/kg subcutaneously): 5/5
Mice infected and treated/Mice surviving 60 days (P. berghei; 80 mg/kg subcutaneously): 5/5
Mice infected and treated/Mice surviving 60 days (P. berghei; 160 mg/kg subcutaneously): 5/5
Mice infected and treated/Mice surviving 60 days (P. berghei; 320 mg/kg subcutaneously): 5/5
Mice infected and treated/Mice surviving 60 days (P. berghei; 640 mg/kg subcutaneously): 5/5
Monkeys infected and treated/cured (P. cynomolgi; 0.1 mg/kg/day x7, orally): 0/3
Monkeys infected and treated/cured (P. cynomolgi; 0.316 mg/kg/day x7, orally): 1/2
Monkeys infected and treated/cured (P. cynomolgi; 1.0 mg/kg/day x7, orally): 3/3
